# pIC50: −log10 of the molar value.
# Legend:
# [1] = molecular target: Complex V (F1FO ATP synthase); assay: immunocapture-based OXPHOS activity assay; type: biochemical, Bos taurus
# Complex I = assay: immunocapture-based OXPHOS activity assay; type: biochemical, Bos taurus
Compound,pIC50 [1],pIC50 (Complex I)
Cc1oncc1C(=O)Nc1ccc(C(F)(F)F)cc1 [leflunomide],4.46,3.70
"C/C(O)=C(\C#N)C(=O)Nc1ccc(C(F)(F)F)cc1 [A77 1726, 2-Cyano-3-hydroxy-N-[4-(trifluoromethyl)phenyl]-2-butenamide]",4.20,3.64

# From publication PMC5909954 (Toxicology, 2018)
